Reference: BindingDB's records for doi:10.1021/jm030354b (Millennium Pharmaceuticals, 2004)

Assays:
[1] = Inhibition of citreated human (h-PRP) platelet aggregation induced by 5 uM TRAP6
[2] = Inhibition of human platelet (h-PRP) aggregation induced by 20 uM ADP with PPACK
[3] = Inhibition of human platelet (h-PRP) aggregation induced by 5 uM TRAP6 with PPACK
[4] = target: T1, Integrin alpha-IIb/beta-3 (Homo sapiens, UniProt P08514+P05106); assay: Inhibition of platelet aggregation induced by 20 uM adenosine 5-diphosphate (ADP) in citreated human platelet rich plasma (h-PRP)
[5] = Inhibition of human platelet (h-PRP) aggregation induced by 4 ug/mL collagen with PPACK
[6] = Inhibition of citreated human platelet (h-PRP) aggregation induced by 4 ug/mL collagen
[7] = target: T1, Integrin alpha-IIb/beta-3; assay: Inhibition of human platelet (h-PRP) aggregation induced by 20 uM ADP with PPACK

T1 sequence (P05106 27-788 limits assumed): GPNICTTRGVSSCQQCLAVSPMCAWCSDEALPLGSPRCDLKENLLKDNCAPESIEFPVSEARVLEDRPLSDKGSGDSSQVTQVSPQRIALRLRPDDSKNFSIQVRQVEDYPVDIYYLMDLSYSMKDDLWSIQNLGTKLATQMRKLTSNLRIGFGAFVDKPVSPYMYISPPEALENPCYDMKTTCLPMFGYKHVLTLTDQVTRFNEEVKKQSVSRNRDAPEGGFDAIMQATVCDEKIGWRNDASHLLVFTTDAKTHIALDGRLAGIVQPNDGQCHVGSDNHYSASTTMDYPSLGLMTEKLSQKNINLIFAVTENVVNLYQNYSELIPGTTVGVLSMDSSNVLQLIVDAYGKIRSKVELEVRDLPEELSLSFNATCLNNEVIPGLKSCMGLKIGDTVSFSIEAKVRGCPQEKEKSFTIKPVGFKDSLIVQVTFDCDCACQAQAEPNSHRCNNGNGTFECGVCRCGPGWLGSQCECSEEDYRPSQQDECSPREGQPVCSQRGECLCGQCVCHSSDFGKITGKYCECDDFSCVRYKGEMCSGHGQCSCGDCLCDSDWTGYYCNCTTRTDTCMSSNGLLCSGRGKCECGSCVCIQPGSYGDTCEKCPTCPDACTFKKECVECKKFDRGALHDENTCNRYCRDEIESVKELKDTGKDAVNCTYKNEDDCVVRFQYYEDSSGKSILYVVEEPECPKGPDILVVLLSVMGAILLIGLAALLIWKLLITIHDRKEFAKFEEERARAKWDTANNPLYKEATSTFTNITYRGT
T1 sequence (P08514 32-887 limits assumed): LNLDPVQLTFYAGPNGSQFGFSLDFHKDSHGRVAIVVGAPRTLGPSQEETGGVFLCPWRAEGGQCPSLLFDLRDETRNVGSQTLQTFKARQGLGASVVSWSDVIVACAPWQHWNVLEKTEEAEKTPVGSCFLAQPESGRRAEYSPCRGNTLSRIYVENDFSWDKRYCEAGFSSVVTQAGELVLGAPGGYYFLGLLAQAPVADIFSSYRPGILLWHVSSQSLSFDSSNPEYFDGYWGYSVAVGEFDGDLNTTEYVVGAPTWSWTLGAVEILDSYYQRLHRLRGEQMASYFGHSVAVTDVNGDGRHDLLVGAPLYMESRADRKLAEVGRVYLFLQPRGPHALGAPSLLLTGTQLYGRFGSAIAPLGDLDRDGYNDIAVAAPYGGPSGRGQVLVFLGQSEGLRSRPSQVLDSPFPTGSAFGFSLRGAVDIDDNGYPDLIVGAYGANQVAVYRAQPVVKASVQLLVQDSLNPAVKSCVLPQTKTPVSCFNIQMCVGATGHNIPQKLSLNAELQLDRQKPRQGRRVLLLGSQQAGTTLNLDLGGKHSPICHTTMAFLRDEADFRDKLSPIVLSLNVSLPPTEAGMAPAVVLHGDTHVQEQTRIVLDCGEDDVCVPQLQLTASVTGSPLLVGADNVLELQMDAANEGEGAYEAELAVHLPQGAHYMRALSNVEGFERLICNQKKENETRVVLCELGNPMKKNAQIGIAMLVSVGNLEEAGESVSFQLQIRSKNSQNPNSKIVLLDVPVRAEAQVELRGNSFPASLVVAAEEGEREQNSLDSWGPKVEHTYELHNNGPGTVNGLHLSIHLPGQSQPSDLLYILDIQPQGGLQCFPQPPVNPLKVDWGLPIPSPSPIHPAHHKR
T1 sequence (P08514 891-1039 limits assumed): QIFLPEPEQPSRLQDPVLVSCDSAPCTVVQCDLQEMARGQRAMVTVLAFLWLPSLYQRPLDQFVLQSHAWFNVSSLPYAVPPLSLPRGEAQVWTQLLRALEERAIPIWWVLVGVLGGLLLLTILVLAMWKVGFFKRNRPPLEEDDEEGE

Structure (SMILES)	IC50 [1] [nM]	IC50 [2] [nM]	IC50 [3] [nM]	IC50 [4] [nM]	IC50 [5] [nM]	IC50 [6] [nM]	IC50 [7] [nM]
CCOC(=O)COC1CCN(C(=O)[C@H](C)NC(=O)c2ccc(C(=N)NO)cc2)CC1 [((S)-1-{2-[4-(N-Hydroxycarbamimidoyl)-benzoylamino]-propionyl}-piperidin-4-yloxy)-acetic acid ethyl ester]	147	72	182	51			
N=C(N)c1ccc(N2CCC3(CCN(C(=O)CCCC(=O)O)CC3)C2=O)cc1 [5-[2-(4-Carbamimidoyl-phenyl)-1-oxo-2,8-diaza-spiro[4.5]dec-8-yl]-5-oxo-pentanoic acid]	123	168	368	54	464	175	
CCOC(=O)CCNC(=O)N[C@H]1CCN(c2ccc(C(=N)N)cc2)C1=O [SC-57099B]	166	137	362	68			
N=C(N)c1ccc(N2CCC3(CCN(C(=O)NCCC(=O)O)CC3)C2=O)cc1 [3-{[2-(4-Carbamimidoyl-phenyl)-1-oxo-2,8-diaza-spiro[4.5]decane-8-carbonyl]-amino}-propionic acid]	120		365	53			110
N=C(N)c1ccc(N2CCC3(CCN(C(=O)COCC(=O)O)CC3)C2=O)cc1 [{2-[2-(4-Carbamimidoyl-phenyl)-1-oxo-2,8-diaza-spiro[4.5]dec-8-yl]-2-oxo-ethoxy}-acetic acid]	273		691	108	812	393	260
